# Assays:
# WT and KitWsh-/- mice = assay: Neuropeptide experiment: intradermal neuropeptide in WT and KitWsh-/- mice, skin mRNA by RT-PCR; format: in vivo, mouse; settings: 100 μL of 1 μM intradermally, 6 hrs
# Experimental: WT and KitWsh^−/− mice were injected with PBS or 100 μL of 1 μM neuropeptide (SP, substance P; ADM-2, adrenomedullin-2; PACAP, pituitary adenylate cyclase-activating peptide) intradermally, as indicated. Skin biopsies were harvested 6 hrs after injection and mRNA expressions of (a) proteases (chymase, tryptase, Mmp-9 and Mmp-1) and (b) proinflammatory cytokines (Cxcl2 and Tnf-α) were assessed by RT-PCR. Statistics: two-way ANOVA*p<0.05, **p<0.01, ***p<0.001 (n=3).
# For the neuropeptide experiment, 100 μL of 1 μM neuropeptide or PBS was injected into mice intradermally. Skin biopsies were taken 6 hrs after injection.
# (§1) cDNA was synthesized from RNA using the iScript cDNA Synthesis Kit (BioRad, Hercules, CA) according to the manufacturer's protocol. cDNA was normalized using a NanoDrop spectrophotometer (Thermo Fisher Scientific Inc.). Probes from TagMan Gene Expression Assays (Applied Biosystems ABI, Foster City, CA) were used to analyze gene expressions with following to the manufacturer's instructions. Gapdh mRNA was used as an internal control to validate RNA for each sample. mRNA expression was calculated as the relative expression to Gapdh mRNA, and all data are presented as fold change of each control.
# Rosacea flare-ups are frequently initiated by face flushing due to neuronal dysfunction and increased release of pituitary adenylate cyclase-activating peptide (PACAP) (Schwab et al., 2011). To investigate whether neuropeptides (NPs) require MC activation for the development of the inflammatory response in rosacea, 100 μL of 1 μM NP (substance P: SP, adrenomedullin-2: ADM-2, PACAP) was injected intradermally into WT and MC deficient mice. […] Moreover, these same MC enzymes can further increase the levels of free Cath LL-37 and amplify the inflammatory response.
# [1] = system: WT (C57BL/6) and MC-deficient (KitWsh-/-) mice; assay: Rosacea mouse model: intradermal Cath LL-37 in WT and MC-deficient (KitWsh-/-) mice; format: in vivo
# Experimental: (a) Human biopsy samples from healthy and rosacea subjects were assessed for chymase and Mmp-9 mRNA expressions (n=6). (b) Photographs of the rosacea mouse model. 24 hrs after removal of the hair, the back skins of wild type (C57BL/6) and MC-deficient (KitWsh^−/−) mice were injected intradermally with 50 μl of 320 μM Cath LL-37 or filtered PBS twice a day for 2 days. Clinical observation was carried out for 72 hours. (c) Skins from WT, WT MC reconstituted KitWsh^−/− and KitWsh^−/− mice were challenged as indicated and harvested after 72 hours of observation. Mmp-9 mRNA expression in each sample was assessed by RT-PCR. (d) Assessment of MMP protease activities in WT mouse skin following challenge with PBS or the indicated amounts of Cath LL-37. (e) Skin biopsies from WT or KitWsh^−/− mice were analyzed by RT-PCR for the expression of MC proteases at 0, 1, 4, and 24 hrs after Cath LL-37 challenge. Statistics: Mann Whitney test, one-way and two-way ANOVA*p<0.05, **p<0.01, ***p<0.001 (1b-1e: n=3).
# (§2) (a) Bone marrow derived mouse MCs were challenged in vitro with 10 ug/mL Cath LL-37 or PBS as indicated. The cells were harvested at different time points and the mRNA was extracted and assessed by RT-PCR for tryptase, chymase and Mmp-9 expression. (b) Cell culture supernatant from bone marrow derived MCs was taken after 24 hrs of Cath LL-37 challenge. MMP and MMP-9 specific activities were measured by assessing cleavage of MMP substrate in the presence or absence of a specific MMP-9 inhibitor, as indicated. (c) Bone marrow derived MCs were treated, as indicated, for 24 hrs before collecting supernatants and assessing degranulation percentage by measuring β-hexosaminidase release. (d) Cultured mouse MCs were challenged with the indicated concentrations of Cath LL-37 for 24 or 48 hrs before supernatants were collected and the amounts of IL-6 secretion were measured. (e) Il-6 mRNA expression was measured by RT-PCR in mouse skin biopsies after 0, 1, 4, and 24 hrs of Cath LL-37 challenge in WT and MC deficient mice, as indicated. Statistics: t-test ***p<0.001 (n=3).
# Mast cell deficient (C57BL/6-KitWsh^−/−) mice were bred. KitWsh^−/− mice bearing the W-sash (Wsh) inversion mutation have MC deficiency, but lack anemia and sterility. […] Wild type mice (C57BL/6) were utilized as control. Mice were shaved 24 hrs before intradermal injection with 50 μl of 50 μM or 320 μM of Cath LL-37 or filtered PBS (n=3), twice a day for 2 days and skin biopsies were taken after 72 hours of observation. Total RNA was extracted and purified by RNeasy Mini Kit (QIAGEN science). For the time course observation, skin biopsies of WT and MC deficient mice were taken at 1, 4, and 24 hrs after Cath LL-37 injection.
# BMMC reconstitution in KitWsh−/− mice. 4×10^6 cells of C57BL/6 mature BMMCs were diluted in filtered PBS and injected into the shaved back skin of 6 week old C57BL/6− KitWsh^−/− mice (400 μl; 8×50 μl injections) intradermally. After 6 weeks, MCs were confirmed as resident cells in skin by toluidine blue staining.
# (§3) Total-MMP activities were determined by following previously reported study (Kanada et al., 2012). To determine MMP-9 activity, MMP-9 specific inhibitor I (Thermo Fisher Scientific, Chicago, IL) was used.
# as §1
# Cath LL-37 was injected intradermally into mast cell deficient mice (KitWsh^−/−) and compared the resulting inflammation with Wild Type (WT) mice. […]
# [2] = system: bone marrow derived mouse MCs; assay: In vitro Cath LL-37 challenge of bone marrow derived mouse MCs; format: cell-based
# Experimental: as §2
# Primary MCs were generated from mouse bone marrow and cultured as previously written (Wang et al., 2011). MCs were cultured in Stemline® II Hematopoietic Stem Cell Expansion Medium (Sigma-Aldrich).
# as §3, §1
# Degranulation percentage was assessed by measuring the activity of β-hexosaminidase in the supernatants as previously described (Wang et al., 2012).
# ELISA (ELISA MAX™ Deluxe; BioLegend, San Diego, CA) was utilized to determine mouse IL-6 according to the manufacturer's instructions, normalized to total protein content.
# To confirm that mast cells are responsive to direct Cath LL-37 stimulation, bone marrow derived mouse MCs were stimulated with different concentrations of Cath LL-37 at different time points. […] MMP-9 protease activity in the culture medium of MCs stimulated with Cath-LL37 for 24 hrs was confirmed by fluorescence enzymatic activity assay using an MMP specific substrate and an MMP-9 specific inhibitor (FIG. 2b).
# [3] = MC-deficient mice after Cath LL-37
# [4] = WT mice, 0, 1, 4, 24 hrs after Cath LL-37
# [5] = Cath LL-37 stimulated MCs, at 5 hrs
# [6] = Cath LL-37 stimulated MCs, at 5 hrs, p<0.001
substance,measurement,setting,value
pituitary adenylate cyclase-activating peptide [PACAP],Tnf-a mRNA expression in skin,WT and KitWsh-/- mice; MC deficient mice,not in MC deficient mice
same,Cxcl2 mRNA expression in skin,"WT and KitWsh-/- mice; WT mice, p<0.01",significantly increased
same,Tnf-a mRNA expression in skin,"WT and KitWsh-/- mice; WT mice, p<0.01",significantly increased
same,Tryptase mRNA expression in skin,"WT and KitWsh-/- mice; WT mice, p<0.01",dramatically increased
same,Chymase mRNA expression in skin,"WT and KitWsh-/- mice; WT mice, p<0.05",significantly increased
same,Mmp-1 mRNA expression in skin,"WT and KitWsh-/- mice; WT mice, p<0.05",significantly increased
same,Mmp-9 mRNA expression in skin,"WT and KitWsh-/- mice; WT mice, p<0.05",significantly increased
"Cath LL-37: LL-37 Cathelicidin antimicrobial peptide, C-terminal 37 amino acids of human cathelicidin",clinical end point observation of skin,"[1]; KitWsh-/- mice, intradermal Cath LL-37, at 72 hrs",did not develop any rosacea-like features
same,chymase expression in skin (time course),[1]; [3],not detectable
same,tryptase expression in skin (time course),[1]; [3],not detectable
same,IL-6 mRNA expression in skin,[1]; WT mice following Cath LL-37 challenge,Increased
same,chymase expression in skin (time course),[1]; [4],expressed immediately after injection
same,tryptase expression in skin (time course),[1]; [4],expressed immediately after injection
same,MMP activity in skin,"[1]; WT mice, 50 μM and 320 μM Cath LL-37 injected",increases in a dose dependent manner
same,clinical end point observation of skin,"[1]; WT mice, intradermal Cath LL-37 twice a day for 2 days, at 72 hrs",rosacea-like inflammation
same,Mmp-9 mRNA expression in skin from MC deficient mice compared with WT and WT MC-reconstituted KitWsh-/- mice,"[1]; after peptide challenge, 72 hours, p<0.01 vs WT, p<0.05 vs reconstituted",significantly lower
same,IL-6 mRNA expression in skin,[1]; mast cell deficient mice following Cath LL-37 challenge,not in mast cell deficient mice
same,secreted IL-6 (ELISA),"[2]; 24 and 48 hrs of stimulation, Cath LL-37 20 nM and 40 nM",high levels
same,Klk5 mRNA expression,[2]; [5],not detectable
same,Klk6 mRNA expression,[2]; [5],not detectable
same,Mmp-1a mRNA expression,[2]; [5],not detectable
same,Mmp-9 mRNA expression,[2]; [6],significantly higher
same,Tryptase mRNA expression,[2]; [6],significantly higher
same,chymase mRNA expression,[2]; [6],significantly higher
same,MMP-9 protease activity in the culture medium,"[2]; MCs stimulated with Cath-LL37 for 24 hrs, MMP specific substrate and MMP-9 specific inhibitor",confirmed
same,MC degranulation (β-hexosaminidase release),"[2]; low concentration of Cath LL-37 (20 nM), supernatants after 24 hrs",able to induce degranulation
